Measurements as given in US12714706B2, “Methods of treating small cell lung cancer with lurbinectedin formulations” (PHARMA MAR, S.A., priority 2019, dated 2026).
Several values for one entry are separate records, joined by “and”; a condition that tells them apart may be missing. Equal values may be shown once. Read-outs that look alike come from different tables or passages of the source.

Columns and labels:
[1] = Electrostatic charge measurements with a Faraday cage; type: physicochemical; conditions: dry nitrogen, 95% confidence
Experimental: This technique consists in placing the sample to be measured (q) in the interior of the inner sphere (a) and measuring the difference of potential induced between sphere (a) and another conductor of reference, sphere (b). The external sphere (c) is grounded in order to shield the system.
Measurements were carried out under controlled atmosphere of dry nitrogen in order to avoid the effect of ambient humidity on the electrostatic charge of the samples. Samples were introduced in glass capsules using non-conductor instrumental to avoid loses of electrostatic charge. The capsules loaded with the samples were introduced in the Faraday cage through a grounded conductor tube to avoid parasitic static charges in the glass capsule. The entry and removal of the capsules was done with a computer-controlled servo engine, in order to ensure a constant rate of introduction and removal of the capsules in each measurement to minimize the creation of static charges due to friction of the insulator elements.
Results: Several measurements with different amounts of material were carried out for each batch of each form of lurbinectedin. Before loading the capsules, they were washed and their remaining static charge was measured in order to correct the levels. Each sample was introduced and removed five times and, after each introduction, several consecutive measurements were taken in order to average any possible drift effect.
The data was fitted by lineal regression (dashed lines in FIGS. 9a and 9b) to obtain the charge density (Q/m) as the slope of the line.

[2] = Analytical results and impurity profile of batches of Form A and Form B of lurbinectedin; type: physicochemical; set-up: Impurity RRT approx. 1.10-1.11 / Impurity RRT approx. 1.12 / Impurity RRT approx. 1.27-1.34 / Impurity RRT approx. 1.29-1.30 / Impurity RRT approx. 1.30-1.32 / Impurity RRT approx. 1.28-1.37 / Impurity RRT approx. 2.37 / Impurity RRT approx. 2.41-2.52 / Impurity RRT approx. 2.85 / Impurity RRT approx. 0.66-0.69 / Impurity RRT approx. 0.72-0.76: unit not given here; conditions: for Impurity RRT aprox 0.66-0.69 / Impurity RRT aprox 0.72-0.76 / Impurity RRT aprox 0.90-0.92: batches of Form B
Excerpt: Several batches of Form A of lurbinectedin were manufactured by this method.
Several batches of Form B of lurbinectedin were manufactured by this method.

[3] = Direct dissolution of lurbinectedin at 0.5 mg/mL in 0.03 M sodium lactate buffer pH 4; type: physicochemical
Excerpt: In embodiments, the lurbinectedin to be dissolved is at least partially crystalline. The lurbinectedin to be dissolved may be in the solid state form(s) described herein.

[4] = DVS (dynamic vapor sorption); type: physicochemical
Experimental: DVS experiments were carried out with a Projekt Messtechnik SPS 11-100n multi-sample water vapor sorption analyzer. The sample was allowed to equilibrate at 50% r.h. before starting a pre-defined humidity program. The program was: • 2 h at 50% r.h. • 50 to 0% r.h. (5%/h) • 5 h at 0% r.h. • 0 to 95% r.h (5%/h) • 5 h at 95% r.h. • 95 to 50% (5%/h) • 2 h at 50% r.h.

[5] = DSC; type: physicochemical
Experimental: DSC experiments were carried out with a Perkin Elmer DSC 7 using closed Au crucibles with a heating range between −50 to 250° C. and a heating rate of 10 or 20° C./min.

[6] = TG-FTIR; type: physicochemical
Experimental: TG-FTIR experiments were conducted with a Thermo-Microbalance TG-209 (Netzsch) equipped with a FT-IR Spectrometer Vector 22 (Bruker) using Al crucible (open or with microhole) under N2 atmosphere with a heating range between 25 and 250° C. and a heating rate of 10° C./min.

[7] = Lurbinectedin plus irinotecan trial: pharmacokinetics of lurbinectedin, irinotecan and SN-38; conditions: combination: lurbinectedin 1.0-2.4 mg/m2 + irinotecan 75 mg/m2; n=39; mean (SD)
[8] = irinotecan 125 mg/m2 (Camptosar label); n=64; mean (SD); cited from earlier work
[9] = system: SCLC; test: Post-hoc exploratory analysis of response in SCLC patients who had previously received immunotherapy; type: in vivo, human; conditions: individual SCLC patients, therapy before lurbinectedin
Excerpt: Post-hoc exploratory analysis was done on the response in patients who had previously received immunotherapy (n=8).

[10] = batches of Form B of lurbinectedin, listed as 1924128-LT
[11] = impurity profile, listed as 1924128-LT
[12] = batches of Form B of lurbinectedin
[13] = batches of Form B of lurbinectedin, listed as 1924129-LT
[14] = impurity profile, listed as 1924129-LT
[15] = batches of Form A of lurbinectedin, listed as P04
[16] = impurity profile, batches of Form A, listed as P04
[17] = batches of Form A of lurbinectedin, listed as R05
[18] = impurity profile, batches of Form A, listed as R05

COc1ccc2[nH]c3c(c2c1)CCN[C@]31CS[C@@H]2c3c(OC(C)=O)c(C)c4c(c3[C@H](COC1=O)N1[C@@H]2[C@H]2c3c(cc(C)c(OC)c3O)C[C@@H]([C@@H]1O)N2C)OCO4 [Batch 1924128-LT]
Average charge density (Q/m) ([1]; listed as 1924128-LT): 4.3 ± 0.4 nC/g
Dispersion of charge density (Q/m) ([1]; listed as 1924128-LT): 1.01 ± 0.3 nC/g
Total Impurities [2, 10]: 0.4 % Area
Water Content [2, 10]: 3.0 % w/w
Impurity RRT aprox 0.66-0.69 [2, 11]: 0.06 % area
Impurity RRT aprox 0.72-0.76 [2, 11]: 0.25 % area
Impurity RRT aprox 0.90-0.92 [2, 11]: 0.07 % area

COc1ccc2[nH]c3c(c2c1)CCN[C@]31CS[C@@H]2c3c(OC(C)=O)c(C)c4c(c3[C@H](COC1=O)N1[C@@H]2[C@H]2c3c(cc(C)c(OC)c3O)C[C@@H]([C@@H]1O)N2C)OCO4 [Batch 1924129-LT]
Average charge density (Q/m) ([1]; listed as 1924129-LT): 4.96 ± 2.0 nC/g
Dispersion of charge density (Q/m) ([1]; listed as 1924129-LT): 3.4 ± 1.4 nC/g
Residual Solvents Acetonitrile [2, 12]: <LOQ
Residual Solvents CH2Cl2 [2, 12]: <LOQ
Residual Solvents Methanol [2, 12]: <LOQ
Residual Solvents Pentane [2, 12]: <LOQ
Residual Solvents Total [2, 12]: 0.0 % w/w
Total Impurities [2, 13]: 0.4 % Area
Water Content [2, 13]: 4.1 % w/w
Impurity RRT aprox 0.66-0.69 [2, 14]: 0.07 % area
Impurity RRT aprox 0.72-0.76 [2, 14]: 0.24 % area
Impurity RRT aprox 0.90-0.92 [2, 14]: 0.08 % area

COc1ccc2[nH]c3c(c2c1)CCN[C@]31CS[C@@H]2c3c(OC(C)=O)c(C)c4c(c3[C@H](COC1=O)N1[C@@H]2[C@H]2c3c(cc(C)c(OC)c3O)C[C@@H]([C@@H]1O)N2C)OCO4 [Batch P04]
Average charge density (Q/m) ([1]; listed as P04): 43.1 ± 3.86 nC/g
Dispersion of charge density (Q/m) ([1]; listed as P04): 7.6 ± 2.8 nC/g
Residual Solvents Ethyl acetate ([2]; batches of Form A of lurbinectedin): <LOQ
Impurities Total [2, 15]: 0.2 % Area
Residual Solvents Acetonitrile [2, 15]: <LOQ
Residual Solvents Dichloro-methane [2, 15]: <LOQ
Residual Solvents Hexane [2, 15]: <LOQ
Residual Solvents Methanol [2, 15]: 1.6 % w/w
Residual Solvents Pentane [2, 15]: 0.5 % w/w
Residual Solvents Total [2, 15]: 2.1 % w/w
Water Content [2, 15]: 1.6 % w/w
Impurity RRT approx. 0.72-0.76 [2, 16]: 0.09
Impurity RRT approx. 1.29-1.30 [2, 16]: 0.10

COc1ccc2[nH]c3c(c2c1)CCN[C@]31CS[C@@H]2c3c(OC(C)=O)c(C)c4c(c3[C@H](COC1=O)N1[C@@H]2[C@H]2c3c(cc(C)c(OC)c3O)C[C@@H]([C@@H]1O)N2C)OCO4 [Batch R05]
Average charge density (Q/m) ([1]; listed as R05): 64.02 ± 7.98 nC/g
Dispersion of charge density (Q/m) ([1]; listed as R05): 15.23 ± 5.64 nC/g
Impurities Total [2, 17]: 0.4 % Area
Residual Solvents Acetonitrile [2, 17]: <LOQ
Residual Solvents Dichloro-methane [2, 17]: <LOQ
Residual Solvents Hexane [2, 17]: <LOQ
Residual Solvents Methanol [2, 17]: 2.2 % w/w
Residual Solvents Pentane [2, 17]: 0.3 % w/w
Residual Solvents Total [2, 17]: 2.5 % w/w
Water Content [2, 17]: 1.1 % w/w
Impurity RRT approx. 2.37 ([2]; impurity profile, batches of Form A): 0.13
Impurity RRT approx. 0.72-0.76 [2, 18]: 0.10
Impurity RRT approx. 1.10-1.11 [2, 18]: 0.09
Impurity RRT approx. 1.29-1.30 [2, 18]: 0.05

COc1ccc2[nH]c3c(c2c1)CCN[C@]31CS[C@@H]2c3c(OC(C)=O)c(C)c4c(c3[C@H](COC1=O)N1[C@@H]2[C@H]2c3c(cc(C)c(OC)c3O)C[C@@H]([C@@H]1O)N2C)OCO4 [Form A of lurbinectedin]
Time to complete direct dissolution ([3]; 0.5 mg/mL in 0.03 M sodium lactate buffer pH 4): approximately 30 minutes

COc1ccc2[nH]c3c(c2c1)CCN[C@]31CS[C@@H]2c3c(OC(C)=O)c(C)c4c(c3[C@H](COC1=O)N1[C@@H]2[C@H]2c3c(cc(C)c(OC)c3O)C[C@@H]([C@@H]1O)N2C)OCO4 [Form B of lurbinectedin]
Fraction of the target concentration reached ([3]; 0.5 mg/mL in 0.03 M sodium lactate buffer pH 4, in 2 hours): 60-70%
Deliquescence by DVS [4]: not deliquescent
Hygroscopicity by DVS [4]: hygroscopic
DVS mass change Δm ([4]; 50 to 96% r.h.): 4%
Temperature at which degradation begins by DSC [5]: above 130 °C
Degradation temperature by TG-FTIR [6]: above 150 °C
Release of water by TG-FTIR [6]: 2.6%

CCc1c2c(nc3ccc(O)cc13)-c1cc3c(c(=O)n1C2)COC(=O)[C@]3(O)CC [SN-38]
CL [7]: 810.3 (574) L/h
Cmax [7]: 18.1 (7.7) ug/L
HL [7]: 18.6 (9.1) h
Vz [7]: 18232.3 (8208.4) L
Cmax [8]: 26.3 (11.9) ug/L
HL [8]: 21.0 (20) h

CCc1c2c(nc3ccc(OC(=O)N4CCC(N5CCCCC5)CC4)cc13)-c1cc3c(c(=O)n1C2)COC(=O)[C@]3(O)CC [irinotecan, reference compound]
HL [8]: 11.7 (9) h

Nivolumab
Last prior therapy: TTP ([9]; resistant disease): 2.2 months and 4.1 months and 2.5 months
Last prior therapy: TTP ([9]; sensitive disease): 1.8 months and 1.4 months
